Read-outs that look alike come from different tables or passages of the source.
What was measured:
GHSR1a receptor = target: T1, GHSR1a receptor (Homo sapiens, UniProt Q92847); experiment: 125I-Ghrelin binding assay; conditions: displacement of 125I-ghrelin (0.053 nM), membranes of HEK293 cells transfected with GHSR1a; Cheng-Prussoff; '—' not defined; read-out: Binding pKi (converted)
T1 construct: expressed in transfected cells; host or cells: HEK293 (membranes)

Ghrelin receptor = Ghrelin receptor (Homo sapiens, UniProt Q92847); experiment: Receptor Selection and Amplification Technology (R-SAT) assay; type: cell-based; set-up: expressed in transfected cells; host or cells: NIH3T3; conditions: for IC50: '—' not defined (nd used separately), read-out: RSAT pIC50 (converted); for Emax: read-out: RSAT Eff(%)
[1] = negative logarithm of ligand concentration causing 50% inhibition of constitutive receptor response, transfected NIH3T3 cells
[2] = percent inhibition at saturating ligand, normalized to reference ligand Substance P analog = 100%

Sequence of Ghrelin receptor (Q92847 whole entry): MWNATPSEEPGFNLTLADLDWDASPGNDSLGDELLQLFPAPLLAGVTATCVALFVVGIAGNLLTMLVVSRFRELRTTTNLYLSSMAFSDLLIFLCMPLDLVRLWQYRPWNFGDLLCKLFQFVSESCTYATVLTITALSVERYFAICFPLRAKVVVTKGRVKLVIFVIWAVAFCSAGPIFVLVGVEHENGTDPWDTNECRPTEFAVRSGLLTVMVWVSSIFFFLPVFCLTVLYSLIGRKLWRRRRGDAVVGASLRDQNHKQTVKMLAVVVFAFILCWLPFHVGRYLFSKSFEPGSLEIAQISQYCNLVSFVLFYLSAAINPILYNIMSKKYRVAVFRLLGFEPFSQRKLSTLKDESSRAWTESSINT
T1 sequence (Q92847 whole entry): as above

Structure (SMILES)	Ki (GHSR1a receptor) [nM]	IC50 (Ghrelin receptor; [1]) [nM]	Emax (Ghrelin receptor; [2]) [%]	RSAT Eff(%) (Ghrelin receptor; [2])	Emax (Ghrelin receptor) [%]	IC50 (Ghrelin receptor; […]) [nM]
CCCCC[C@H]1C[C@H]2CC[C@@H](C1)N2CCCn1cc(C(C)=O)c2cccc(Br)c21	158	1.26	81	–	–	–
COc1cccc2c(C(C)=O)cn(CCCN3CCCN(Cc4ccc(F)cc4)CC3)c12	15.8	1.26	–	130	–	–
CCc1cccc2c(C(C)=O)cn(CCCN3CCC(Oc4cccc(Cl)c4)CC3)c12	31.6	1.58	118	–	–	–
COc1cccc2c(C(=O)NCC(C)C)cn(CCCN3CCC(Oc4ccc(F)cc4)CC3)c12	126	1.58	–	–	90	–
COc1cccc2c(C(=O)C3CC3)cn(CCCN3CCC(Oc4cccc(Cl)c4)CC3)c12	20	1.58	–	–	102	–
CCCCC[C@H]1C[C@H]2CC[C@@H](C1)N2CCCn1cc(C(C)=O)c2cccc(OC)c21	316	2	–	113	–	–
COc1cccc2c(C#N)cn(CCCN3C4CCC3CC(CCc3ccccc3)C4)c12 (stereo not drawn)	25.1	2	–	–	104	–
COc1cccc2c(C(C)=O)cn(CCCN3CCN(c4ncc(C(F)(F)F)cc4Cl)CC3)c12	398	2.51	–	103	–	–
COc1cccc2c(C#N)cn(CCCN3CCCN(Cc4ccccc4Cl)CC3)c12	12.6	2.51	137	–	–	–
CC(=O)c1cn(CCCN2CCC(C(=O)c3ccccc3)CC2)c2c(C)cccc12	100	3.16	96	–	–	–
CC(=O)c1cn(CCCN2CCCN(Cc3ccccc3Cl)CC2)c2ncccc12	25.1	3.16	115	–	–	–
COc1cccc2c(C(=O)Cc3ccccc3)cn(CCCN3CCN(Oc4cccc(Cl)c4)CC3)c12	15.8	–	–	–	88	3.16
CC(=O)c1cn(CCCN2C3CCC2CC(Oc2ccccc2Cl)C3)c2ncccc12 (stereo not drawn)	31.6	20	108	–	–	–
COc1cccc2c(C(=O)c3ccccc3)cn(CCCN3CCC(Oc4ccc(F)cc4)CC3)c12	1260	–	–	–	107	25.1
COc1ccccc1C1CCN(CCCn2cc(C(=O)NCC(C)C)c3cccc(OC)c32)CC1	126	25.1	–	–	108	–
COc1cccc2c(C(C)=O)cn(CCCN3CCN(c4ccccc4Cl)CC3)c12	2510	25.1	108	–	–	–
COc1cccc2c(C(C)=O)cn(CCCN3CCN(c4ccc(C(F)(F)F)cc4)CC3)c12	251	25.1	92	–	–	–
COc1cccc2c(C(=O)Cc3ccccc3)cn(CCCN3CCCC(Cc4ccccc4Cl)C3)c12 (stereo not drawn)	126	–	–	–	116	25.1
Cc1cccc(CNC(=O)n2cc(CCCN3C4CCC3CC(CCc3ccccc3)C4)c3ccccc32)c1 (stereo not drawn)	158	31.6	114	–	–	–
O=C(c1cn(CCCN2C3CCC2CC(CCc2ccccc2)C3)c2ncccc12)C(F)(F)F (stereo not drawn)	200	31.6	104	–	–	–
COc1cccc2c(C(C)=O)cn(CCCN3CCC(Cc4ccccc4)CC3)c12	794	31.6	116	–	–	–
O=C(c1cn(CCCN2CCCN(Cc3ccccc3Cl)CC2)c2ncccc12)C(F)(F)F	50.1	31.6	85	–	–	–
COc1ccccc1C1CCN(CCCn2cc(C(C)=O)c3cccc(OC)c32)CC1	631	39.8	–	109	–	–
CC(=O)c1cn(CCCN2CCC(Oc3ccc(F)cc3)CC2)c2c(Cl)cccc12	2000	39.8	120	–	–	–
COc1cccc2c(C(C)=O)cn(CCCN3CCC(C(=O)c4ccccc4)CC3)c12	2000	39.8	–	98	–	–

Structure (SMILES)	Ki (GHSR1a receptor) [nM]	IC50 (Ghrelin receptor; [1]) [nM]	Emax (Ghrelin receptor; [2]) [%]	RSAT Eff(%) (Ghrelin receptor; [2])	Emax (Ghrelin receptor) [%]	IC50 (Ghrelin receptor; […]) [nM]
COc1cccc2c(C(C)=O)cn(CCCN3CCN(c4ccc(C(F)(F)F)cc4[N+](=O)[O-])CC3)c12	631	39.8	94	–	–	–
COc1cccc2c(C#N)cn(CCCN3C4CCC3CC(CCc3ccc(Cl)cc3)C4)c12 (stereo not drawn)	251	39.8	77	–	–	–
CC(=O)c1cn(CCCN2CCC(Oc3ccc(Cl)cc3)CC2)c2c(C)cccc12	2000	39.8	101	–	–	–
COc1cccc2c(C(C)=O)cn(CC(C)CN3CCC(Oc4cccc(Cl)c4)CC3)c12 (stereo not drawn)	794	39.8	102	–	–	–
COc1ccccc1C1CCN(CCCn2cc(C(C)=O)c3cccc(C)c32)CC1	1260	39.8	116	–	–	–
CC(=O)c1cn(CCCN2C3CCC2CC(Oc2ccc(F)cc2)C3)c2c(C#N)cccc12 (stereo not drawn)	100	50.1	93	–	–	–
COc1cccc2c(C(=O)NCc3cccc(Cl)c3)cn(CCCN3C4CCC3CC(Oc3ccc(Cl)cc3)C4)c12 (stereo not drawn)	251	50.1	–	97	–	–
COc1ccc(C(=O)OC2C[C@H]3CC[C@@H](C2)N3CCCn2cc(C(C)=O)c3cccc(OC)c32)cc1OC (stereo partly drawn)	1000	50.1	–	–	104	–
COc1ccccc1C1CCN(CCCn2cc(C(C)=O)c3cccc(Br)c32)CC1	316	50.1	109	–	–	–
CC(=O)c1cn(CCCN2C3CCC2CC(Oc2ccc(Cl)cc2)C3)c2c(Cl)cccc12 (stereo not drawn)	1000	50.1	104	–	–	–
CC(=O)c1cn(CCCN2C3CCC2CC(CCc2ccc(Cl)cc2)C3)c2ncccc12 (stereo not drawn)	398	79.4	87	–	–	–
CC(=O)c1cn(CCCN2CCC(C(=O)c3ccccc3)CC2)c2c(Br)cccc12	1580	79.4	84	–	–	–
COc1cccc2c(C#N)cn(CCCN3C4CCC3CC(Oc3ccccc3Cl)C4)c12 (stereo not drawn)	631	100	114	–	–	–
CC(C)CC(=O)c1cn(CCCN2CCC(Oc3ccc(F)cc3)CC2)c2ccccc12	1000	–	–	–	93	100
CCc1cccc2c(C(C)=O)cn(CCCNCCOc3ccccc3)c12	12.6	100	106	–	–	–
CCCCC(=O)c1cn(CCCN2CCC(Oc3ccc(Cl)cc3)CC2)c2ccc(OC)cc12	251	126	–	–	111	–
CC(=O)c1cn(CCCN2CCC(Oc3ccc(Cl)cc3)CC2)c2ccccc12	2510	126	104	–	–	–
CCCCCC=C1CCN(CCCn2cc(C(C)=O)c3ccccc32)CC1	200	200	139	–	–	–
CCCCCCC1CCN(CCCn2cc(C(C)=O)c3ccccc32)CC1	6310	200	94	–	–	–
CC(=O)c1cn(CCCN2CCC(CCC(C)C)CC2)c2ccccc12	3980	398	73	–	–	–
CC(=O)c1c(C)n(CCCN2C3CCC2CC(CC(=O)c2ccc(Cl)cc2)C3)c2c(Br)cccc12 (stereo not drawn)	63.1	631	64	–	–	–
CC(=O)c1cn(CCCN2C3CCC2CC(OCC2CC2)C3)c2ccccc12 (stereo not drawn)	15800	1260	89	–	–	–
COc1cccc2c(C#N)cn(CCCN3CCC(Oc4cccc(Cl)c4)CC3)c12	39.8	1260	162	–	–	–
COc1ccc2c(c1)C1CCN(CCCn3cc(C(C)=O)c4ccccc43)CC1C2 (stereo not drawn)	5010	1260	110	–	–	–

Reference: patent US20070213359A1 (ACADIA Pharmaceuticals Inc., priority 2005, published 2007)
